From US7771736B2, “Glyphosate formulations and their use for the inhibition of 5-enolpyruvylshikimate-3-phosphate synthase” (Monsanto Technology LLC, priority 2002, dated 2010)
Like-named read-outs stand apart in the source and are kept apart here.

Key:
[1] = Metal Ion Mg2+; cited from earlier work
[2] = tested on: maize EPSPS; assay: enzyme activity of maize EPSPS (HPLC radioassay, S3P and 14C-PEP) with oxalate or citrate in the presence and absence of glyphosate; format: biochemical; conditions: for effect on the inhibition of EPSPS by glyphosate (rate of catalytic activity on S3P and PEP): additive with 0, 0.6 or 6 mcM glyphosate, relative rate normalized to zero glyphosate
Description: These examples assessed the enzyme activity of maize EPSPS with increasing concentrations of oxalate (0, 0.06 mcM, 0.3 mcM, 1.5 mcM, 7.5 mcM and 37.5 mcM) in the presence and absence of glyphosate. Three different conditions (0, 0.6 mcM, and 6 mcM glyphosate) were studied. The assay consisted of incubating enzyme (9 mcg/mL final concentration in the assay) with S3P and ^14C-PEP. The conversion of labeled substrate to 5-enol-[^14C]-pyruvylshikimate-3-phosphate was determined by HPLC radioassay.
Initial velocities were calculated by multiplying fractional turnover per unit time by the initial concentration of the labeled substrate. The data are expressed as relative rates of the enzyme, where relative rate is the reaction rate at a given condition normalized to similar reaction with zero glyphosate.

[3] = tested on: different weed species; assay: herbicidal efficacy in whole plants / on different weed species; format: in vivo; conditions: for enhancement of glyphosate herbicidal efficacy: additive combined with glyphosate, whole plants / weed species
[4] = Metal Ion Ca2+; cited from earlier work
[5] = tested on: Toxoplasma gondii; conditions: cited from earlier work
[6] = tested on: Cryptosporidium parvum; conditions: cited from earlier work
[7] = tested on: Plasmodium falciparum; conditions: Plasmodium falciparum (malaria); cited from earlier work

SMILES	Log K (Binding Constant) [1]	effect on the inhibition of EPSPS by glyphosate (rate of catalytic activity on S3P and PEP) [2]	enhancement of glyphosate herbicidal efficacy [3]	Log K (Binding Constant) [4]	effect on the inhibition of EPSPS by glyphosate (rate of catalytic activity on S3P and PEP) ([2]; listed as oxalate)	inhibitory effect on the enzyme on its own ([2]; without glyphosate)	herbicidal property by itself ([3]; additive alone, enzyme studies and whole plant response)	growth inhibition of parasite [5]	growth inhibition of parasite [6]	growth inhibition of parasite [7]
O=C(O)CC(O)(CC(=O)O)C(=O)O [Citric acid, citric acid]	3.45	did not have any effect on EPSPS inhibition by glyphosate	failed to show enhancement of glyphosate efficacy on different weed species	3.45						
O=C(O)C(=O)O [Oxalic acid, oxalic acid]	2.76	enhance the inhibition of EPSPS by glyphosate	enhance the inhibition of EPSPS by glyphosate as well as its herbicidal efficacy in whole plants	2.46	enhanced the enzyme binding of glyphosate	do not have any inhibitory effect on the enzyme on their own	does not have any herbicidal property			
O=C(O)CNCP(=O)(O)O [glyphosate, N-phosphonomethyl glycine]								growth of these parasites can be inhibited	growth of these parasites can be inhibited	growth of these parasites can be inhibited
